Results reported in PubChem BioAssay AID2060891 (Molecular Pharmacology Branch, DTP, NCI, 2025).

Tested on: K98450-129-R-PDC complex spheroid growth, percent test/control
Experiment: Anticancer human tumor K98450-129-R-PDC patient-derived colon adenocarcinoma cell line growth inhibition [RAS]
Conditions: for IC50: curve of first compound; for viability, T/C: stronger effect = lower value
Summary of the method: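 Multi-cell-type spheroids: tumor cells plus HUVEC endothelial cells and mesenchymal stem cells. RAS-pathway inhibitors were combined with targeted agents, each dosed in half-log steps down from clinical Cmax, or from 10 microM when Cmax was unknown.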

[1] = second compound 0.000949 µM, first compound 0.0316 µM
[2] = second compound 0.000949 µM, first compound 0.1 µM
[3] = second compound 0.003 µM, first compound 0.0316 µM
[4] = second compound 0.003 µM, first compound 0.1 µM
[5] = second compound 0.00949 µM, first compound 0.0316 µM
[6] = second compound 0.00949 µM, first compound 0.1 µM
[7] = second compound 0.03 µM, first compound 0.0316 µM
[8] = second compound 0.03 µM, first compound 0.1 µM
[9] = second compound 0.0949 µM, first compound 0.0316 µM
[10] = second compound 0.0949 µM, first compound 0.1 µM
[11] = second compound 0.3 µM, first compound 0.0316 µM
[12] = second compound 0.3 µM, first compound 0.1 µM
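Further: spheroids exposed to agents for seven days before the viability readout.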
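Wherever viability, T/C is given: luminescence used as a proxy for viable cell amount.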

In the case of `CC(C)NCC(C(=O)N1CCN(c2ncnc3c2C(C)CC3O)CC1)c1ccc(Cl)cc1` (centres undefined) + CCn1c(-c2cc(N3CCN(C)CC3)cnc2C(C)OC)c2c3cc(ccc31)-c1csc(n1)CC(NC(=O)C1CC1C)C(=O)N1CCCC(N1)C(=O)OCC(C)(C)C2, the IC50 (second compound 0.000949 µM) is reported as greater than 10000 nM, the IC50 (second compound 0.003 µM) is reported as greater than 10000 nM and the IC50 (second compound 0.00949 µM) is reported as greater than 10000 nM. The IC50 (second compound 0.03 µM) was less than 31.6 nM, the IC50 (second compound 0.0949 µM) was less than 31.6 nM and the IC50 (second compound 0.3 µM) was less than 31.6 nM. It also gave a viability, T/C [1] of 104%, a viability, T/C [2] of 93.3% and a viability, T/C (second compound 0.000949 µM, first compound 0.316 µM) of 89.9%. The viability, T/C (second compound 0.000949 µM, first compound 1 µM) was 73.3%, the viability, T/C (second compound 0.000949 µM, first compound 3.16 µM) was 100% and the viability, T/C (second compound 0.000949 µM, first compound 10 µM) was 89.9%. For the same molecule, the viability, T/C [3] was 90.7%, the viability, T/C [4] was 80.8% and the viability, T/C (second compound 0.003 µM, first compound 0.316 µM) was 87.1%. For the same molecule, the viability, T/C (second compound 0.003 µM, first compound 1 µM) was 76.5%, the viability, T/C (second compound 0.003 µM, first compound 3.16 µM) was 75.3% and the viability, T/C (second compound 0.003 µM, first compound 10 µM) was 79.7%. The viability, T/C [5] was 66.7%, the viability, T/C [6] was 67% and the viability, T/C (second compound 0.00949 µM, first compound 0.316 µM) was 70%. The viability, T/C (second compound 0.00949 µM, first compound 1 µM) was 74.5%, the viability, T/C (second compound 0.00949 µM, first compound 3.16 µM) was 77.4% and the viability, T/C (second compound 0.00949 µM, first compound 10 µM) was 67.5%. For the same molecule, the viability, T/C [7] was 48.7%, the viability, T/C [8] was 44.8% and the viability, T/C (second compound 0.03 µM, first compound 0.316 µM) was 52.7%. The viability, T/C (second compound 0.03 µM, first compound 1 µM) was 47.7%, the viability, T/C (second compound 0.03 µM, first compound 3.16 µM) was 54.7% and the viability, T/C (second compound 0.03 µM, first compound 10 µM) was 46.9%. For the same molecule, the viability, T/C [9] was 19%, the viability, T/C [10] was 24.3% and the viability, T/C (second compound 0.0949 µM, first compound 0.316 µM) was 17.6%. The viability, T/C (second compound 0.0949 µM, first compound 1 µM) was 17.8%, the viability, T/C (second compound 0.0949 µM, first compound 3.16 µM) was 16.2% and the viability, T/C (second compound 0.0949 µM, first compound 10 µM) was 11.2%. The viability, T/C [11] was 11.1%, the viability, T/C [12] was 12.6% and the viability, T/C (second compound 0.3 µM, first compound 0.316 µM) was 12.5%. It also gave a viability, T/C (second compound 0.3 µM, first compound 1 µM) of 10.1%, a viability, T/C (second compound 0.3 µM, first compound 3.16 µM) of 9.61% and a viability, T/C (second compound 0.3 µM, first compound 10 µM) of 7.13%.

Molecule `CC(C)n1nc(-c2ccc3oc(N)nc3c2)c2c(N)ncnc21` + CCn1c(-c2cc(N3CCN(C)CC3)cnc2C(C)OC)c2c3cc(ccc31)-c1csc(n1)CC(NC(=O)C1CC1C)C(=O)N1CCCC(N1)C(=O)OCC(C)(C)C2 has an IC50 (second compound 0.000949 µM) greater than 100 nM, an IC50 (second compound 0.003 µM) greater than 100 nM and an IC50 (second compound 0.00949 µM) greater than 100 nM. The IC50 (second compound 0.03 µM) was 10.1 nM, the IC50 (second compound 0.0949 µM) was less than 0.316 nM and the IC50 (second compound 0.3 µM) was less than 0.316 nM. It also gave a viability, T/C (second compound 0.000949 µM, first compound 0.000316 µM) of 98.9%, a viability, T/C (second compound 0.000949 µM, first compound 0.001 µM) of 80.9% and a viability, T/C (second compound 0.000949 µM, first compound 0.00316 µM) of 91.9%. It also gave a viability, T/C (second compound 0.000949 µM, first compound 0.01 µM) of 70.7%, a viability, T/C [1] of 82.7% and a viability, T/C [2] of 70.7%. The viability, T/C (second compound 0.003 µM, first compound 0.000316 µM) was 88.4%, the viability, T/C (second compound 0.003 µM, first compound 0.001 µM) was 70.8% and the viability, T/C (second compound 0.003 µM, first compound 0.00316 µM) was 76.1%. The viability, T/C (second compound 0.003 µM, first compound 0.01 µM) was 65.4%, the viability, T/C [3] was 71.2% and the viability, T/C [4] was 64%. The viability, T/C (second compound 0.00949 µM, first compound 0.000316 µM) was 80.7%, the viability, T/C (second compound 0.00949 µM, first compound 0.001 µM) was 60.1% and the viability, T/C (second compound 0.00949 µM, first compound 0.00316 µM) was 63.9%. For the same molecule, the viability, T/C (second compound 0.00949 µM, first compound 0.01 µM) was 57.4%, the viability, T/C [5] was 60.2% and the viability, T/C [6] was 48.1%. It also gave a viability, T/C (second compound 0.03 µM, first compound 0.000316 µM) of 44.8%, a viability, T/C (second compound 0.03 µM, first compound 0.001 µM) of 57.9% and a viability, T/C (second compound 0.03 µM, first compound 0.00316 µM) of 46.3%. For the same molecule, the viability, T/C (second compound 0.03 µM, first compound 0.01 µM) was 51.4%, the viability, T/C [7] was 36.9% and the viability, T/C [8] was 36.1%. For the same molecule, the viability, T/C (second compound 0.0949 µM, first compound 0.000316 µM) was 19.6%, the viability, T/C (second compound 0.0949 µM, first compound 0.001 µM) was 20.5% and the viability, T/C (second compound 0.0949 µM, first compound 0.00316 µM) was 17.9%. For the same molecule, the viability, T/C (second compound 0.0949 µM, first compound 0.01 µM) was 15.8%, the viability, T/C [9] was 14.6% and the viability, T/C [10] was 11.1%. The viability, T/C (second compound 0.3 µM, first compound 0.000316 µM) was 9.98%, the viability, T/C (second compound 0.3 µM, first compound 0.001 µM) was 11% and the viability, T/C (second compound 0.3 µM, first compound 0.00316 µM) was 10.3%. For the same molecule, the viability, T/C (second compound 0.3 µM, first compound 0.01 µM) was 8.15%, the viability, T/C [11] was 7.88% and the viability, T/C [12] was 7.36%.
